Holding throughout (format): in vivo
Assay [1] has as its system Zucker Diabetic Fatty (ZDF) rats. The experiment in a line: Whole blood glucose in the Zucker rat model of diet induced diabetes, 21 days of treatment. The text has this: (§1) Study Design: • Zucker rat model of diet induced diabetes (Zucker Diabetic Fatty Rats) • Parallel randomized study • 10 animals in each of 4 treatment groups • 21 days of treatment
(§2) Main Study Outcomes: • Glucose (measured at multiple time points before and during treatment) • HbA1c (before and at the end of the treatment period) • Insulin (before and at the end of the treatment period) • Creatinine (before and at the end of the treatment period)
(§3) Ten Zucker Diabetic Fatty (ZDF) rats were randomly allocated to each of the four different treatment groups (Table 6). Whole blood glucose measurements were made from 4 days before dosing, then daily until for 8 days, then at reduced frequency. Measurements of HbA1c and creatinine were made the day prior to dosing, then at days 9 and 21. Insulin measurements were made the day prior to dosing then on day 20. A clinical chemistry sample from one animal in the vehicle group on day 9 was not available so there is a missing measurement for creatinine and HbA1c on that day
(§4) Whole blood glucose, HbA1c and Creatinine were each analyzed using a linear mixed mode (proc mixed in SAS/STAT 14.2). For WBC, unstructured, autoregressive, exchangeable and Toeplitz correlation structures for repeated measurements across the study were compared using Akaike Information Criterion and Bayesian Information Criterion. The Toeplitz correlation structure was selected as the best fitting structure. For HbA1c and Creatinine an exchangeable structure was used as there were only two measurements. Denominator degrees of freedom were calculated using the between-within subject method. The model included coefficients for baseline measurement (the closest measurement preceding dosing), type of drug treatment, time and an interaction between drug treatment and time. Marginal means (with 95% confidence intervals) for the measurement at each period for each drug were estimated, and an overall marginal mean (with 95% confidence interval) for measurements across time was estimated using weights that reflect the differing amounts of time in each measurement period (assuming each measurement represented all time since the preceding measurement). A likelihood ratio test of overall differences between treatment was initially used, if significant (p<0.05) then we tested for differences between each combination of treatments.
(§5) To test for robustness of the linear mixed model and ANCOVA models a bootstrapped 95% CI (percentile method) for the weighted marginal mean of measurements across the entire study period or single outcome measurement using 2000 replicates was estimated. The bootstrap sampling was done on individual animal (using complete measurements), with stratification by treatment type.

For assay [2] the test system is unchanged. In words: HbA1c in the Zucker rat model of diet induced diabetes, 21 days of treatment.
Source text: as §1, §2, §3, §4, §5

Assay [3] has the same test system. The experiment in a line: Serum creatinine in the Zucker rat model of diet induced diabetes, 21 days of treatment.
Source text: as §1, §2, §3, §4, §5

Assay [4] has the same test system. In words: Plasma insulin in the Zucker rat model of diet induced diabetes, 21 days of treatment.
Source text: as §1, §2, §3
For Insulin, a baseline measure and a measurement at day 20 was available, so the ANCOVA approach (linear regression with the baseline value as a covariate) was used to test for differences in this measurement between treatments. The interaction between baseline value and treatment was tested but there was no evidence of an interaction, therefore the main effects were retained.
as §5

[5] abbreviates: whole study period, bootstrapped 95% CI, 2000 replicates.

Entries after “also recorded” stand apart in the source; their conditions may differ.

Turning to `CN(C)C(=N)N=C(N)N` [Composition 1K-MET, Metformin], the “WBG relative to the control group” value in assay [1] (21 days of treatment) is listed as “essentially no difference”. Besides, the “Whole blood glucose, pairwise comparison Vehicle vs treatment, Estimate (95% CI)” value in assay [1] (days 1-21, difference = treatment minus vehicle) was 24.4 (−5.2-53.9) mg/dL. For the same compound, the “Overall level in WBG after dosing, Estimate (95% CI)” value in assay [1] (non-fasting whole blood glucose, time-weighted marginal mean over days 1-21 post-dosing, linear mixed model) was 442.7 (421.8-463.5) mg/dL. Further, the “Whole blood glucose, bootstrap median and confidence interval” value in assay [1] (setting [5]) is given as 443.4 (419.8-465.0) mg/dL. Besides, the “HbA1c relative to the control group” value in assay [2] (21 days of treatment) was “essentially no difference”. Also, the “HbA1c, pairwise comparison Vehicle vs treatment, Estimate (95% CI)” value in assay [2] (days 9 and 21, difference = treatment minus vehicle) was −0.35 (−0.68-−0.01) %. The “HbA1c, overall level after dosing, estimate (95% CI)” value in assay [2] (measurements at days 9 and 21, marginal mean, linear mixed model) is 6.52 (6.29-6.75) %. The “HbA1c, bootstrap median and confidence interval” value in assay [2] (setting [5]) is recorded as 6.53 (6.24-6.82) %. Moreover, the “Creatinine relative to the control group” value in assay [3] (21 days of treatment) is given as “essentially no difference”. Also, the “Creatinine, pairwise comparison Vehicle vs treatment, Estimate (95% CI)” value in assay [3] (serum, days 9 and 21, difference = treatment minus vehicle) is on record as 0.01 (−0.01-0.03) mg/dL. For the same compound, the “Creatinine, Overall level in WBG after dosing, Estimate (95% CI)” value in assay [3] (serum, days 9 and 21, marginal mean, linear mixed model) is 0.79 (0.77-0.80) mg/dL. Besides, in assay [3] (setting [5]), the “Creatinine, bootstrap median and confidence interval” value is 0.79 (0.77-0.80) mg/dL. In addition, in assay [4] (day 20), the “Insulin levels relative to the control group / vehicle” value was “no evidence of a difference; also recorded: essentially no difference”. In assay [4] (day 20, ANCOVA with baseline as covariate), the “Insulin, Overall level in WBG after dosing, Estimate (95% CI)” value was 3879 (2757-5001) pg/mL. Further, the “Insulin, bootstrap median and confidence interval” value in assay [4] (day 20, bootstrapped 95% CI, 2000 replicates) is given as 3867 (2914-4874) pg/m. In addition, the “Insulin, pairwise comparison Vehicle vs treatment, Estimate (95% CI)” value in assay [4] (day 20, difference = treatment minus vehicle) was 932 (−660-2524) pg/mL.

The values above are taken from patent publication US11033544B2, “Low-dose triple combination formulation” (THE GEORGE INSTITUTE FOR GLOBAL HEALTH, priority 2019, dated 2021).
